Columns and labels:
RBP4 = RBP4 (Homo sapiens (Human), UniProt P02753); assay: Scintillation proximity RBP4 binding assay (SPA); conditions: 10 nM 3H-Retinol, 50 nM biotinylated RBP4
Protocol: Scintillation Proximity RBP4 Binding Assay
Untagged human RBP4 purified from urine of tubular proteinuria patients was purchased from Fitzgerald Industries International. It was biotinylated using the EZ-Link Sulfo-NHS-LC-Biotinylation kit from Pierce following the manufacturer's recommendations. Binding experiments were performed in 96-well plates (OptiPlate, PerkinElmer) in a final assay volume of 100 μl per well in SPA buffer (1×PBS, pH 7.4, 1 mM EDTA, 0.1% BSA, 0.5% CHAPS). The reaction mix contained 10 nM ^3H-Retinol (48.7 Ci/mmol; PerkinElmer), 0.3 mg/well Streptavidin-PVT beads, 50 nM biotinylated RBP4 and a test compound. Nonspecific binding was determined in the presence of 20 μM of unlabeled retinol.
The reaction mix was assembled in the dark under dim red light. The plates were sealed with clear tape (TopSeal-A: 96-well microplate, PerkinElmer), wrapped in the aluminum foil, and allowed to equilibrate 6 hours at room temperature followed by overnight incubation at +4° C. Radiocounts were measured using a TopCount NXT counter (Packard Instrument Company).

RBP4-TTR interaction = RBP4-TTR interaction (Homo sapiens (Human), UniProt P02753); assay: TR-FRET (HTRF) assay for retinol-induced RBP4-TTR interaction; format: biochemical; conditions: in the presence of 1 μM retinol; read-out: HTRF assay for antagonists of RBP4-TTR interaction: IC50
Excerpt: TR-FRET Assay for Retinol-Induced RBP4-TTR Interaction
Binding of a desired RBP4 antagonist displaces retinol and induces hindrance for RBP4-TTR interaction resulting in the decreased FRET signal (FIG. 7). Bacterially expressed MBP-RBP4 and untagged TTR were used in this assay. […] Following cell lysis, recombinant RBP4 was purified from the soluble fraction using the ACTA FPLC system (GE Healthcare) equipped with the 5-ml the MBP Trap HP column. Human untagged TTR was purchased from Calbiochem. Untagged TTR was labeled directly with Eu^3+ Cryptate-NHS using the HTRF Cryptate Labeling kit from CisBio following the manufacturer's recommendations. HTRF assay was performed in white low volume 384 well plates (Greiner-Bio) in a final assay volume of 16 μl per well. The reaction buffer contained 10 mM Tris-HCl pH 7.5, 1 mM DTT, 0.05% NP-40, 0.05% Prionex, 6% glycerol, and 400 mM KF. […] Titration of test compounds in this assay was conducted in the presence of 1 μM retinol. All reactions were assembled in the dark under dim red light and incubated overnight at +4° C. wrapped in aluminum foil. TR-FRET signal was measured in the SpectraMax M5e Multimode Plate Reader (Molecular Device). […] The TR-FRET signal was expressed as the ratio of fluorescence intensity: Flu665/Flu620×10,000.

Question: With `COC(=O)N1CCc2[nH]nc(C(=O)N3CCC(c4cccc(F)c4C(F)(F)F)CC3)c2C1` [Compound 68] as the molecule, how does the IC50 (RBP4) read?
Answer: < 0.00137 µM

Question: What about the IC50 (RBP4-TTR interaction) of the same molecule?
Answer: 0.0362 µM
